Test results taken from US10745370B2, “Farnesyl transferase inhibitors and uses thereof” (MACKAY MEMORIAL HOSPITAL, priority 2016, dated 2020).
Values joined by “and” are separate entries in the source; they are usually repeats but may differ in a detail not shown here. Equal values may be shown once. “Also recorded” adds a separate entry of the source.

Experiments:
rat PFTase = biological target: T1, rat PFTase (Rattus norvegicus, UniProt Q02293+Q04631); assay: Inhibition of farnesyl transferase (fluorescence assay); format: biochemical; settings: mean ± SD of three independent experiments
T1 construct: purchased Jena Biosciences
Procedure: The assay was carried out in 384-well microplates with a final volume of 20 μl by the method modified from the previous report (Long et al., 2009). Briefly, 10 nM of rat PFTase (Jena Biosciences, Jena, Germany) was incubated with the tested compound or DMSO (1%) for 15 min, and then the mixture was added in a solution (50 mM Tris-HCl, pH 7.5, 5 mM MgCl2, 5 mM DTT, 0.1 mM ZnCl2, 0.2% octyl-β-D-glucopyranoside (Sigma, St. Louis, Mo.), 10 μM PFTase substrate dansyl-Gly-Cys-Val-Leu-Ser-OH, and 10 μM farnesyl pyrophosphate (Sigma, St. Louis, Mo.)) to initiate the reaction. The reaction was incubated at 37° C. for 30 min, and the fluorescence was detected by a M5 plate reader (Molecular Devices, CA, USA) at 340 nm excitation and 505 nm emission.

M1 macrophages [1] = assay: Cell marker expression on M1 macrophages, flow cytometry; format: cell-based, human; settings: for CD14: M1 population after treatment: Table 5; for CD80: change in M1 population: Table 6; for CD206: change in M1: Table 7; for CD206 expression on M1 macrophages: control 14.27%; for CD80 expression on M1 macrophages: control 71.34%; for CD14 expression on M1 macrophages: control 99.83%
Procedure: (§1) M1 differentiation of freshly isolated CD14^+ cells was induced by the addition of lipopolysaccharide (LPS), while M2 differentiation of freshly isolated CD14^+ cells was induced by the addition of IL-4. Then, the present compounds (e.g., Mib-5, 6, 7, 8, 9, or 10) were added at the indicated dosages. 6 days later, the population of the differentiated macrophages were then determined by cell viability analysis.
(§2) The expression of various types of cell markers, such as CD14, CD206, and CD80 expressed on the surface of macrophages, and CD1a, CD14, CD83, and HLA-DR expressed on the dendritic cells, were respectively detected by fluorescein isothiocyanate (FITC) and phycoerythrin (PE)-conjugated monoclonal antibodies in FACS caliber flowcytometer. Monoclonal antibodies used in this examples included anti-CD14 (IgG-FITC), anti-CD206 (IgG-FITC), anti-CD80-PE, anti-CD1a-PE, anti-CD83-PE and anti-human leukocyte antigen (HLA)-DR-PE. Results were analyzed by CellQuest software.

dendritic cells [2] = assay: Cell marker expression on dendritic cells, flow cytometry; format: cell-based, human; settings: 10 μM; for expression of CD1a, differentiation marker of dendritic cells: FIG. 9; for expression of CD83, maturation marker of dendritic cells: FIG. 10
Procedure: (§3) Mononuclear cells (MNCs) were separated from the peripheral blood of healthy donors obtained with written consent by use of Ficoll-Hypaque density centrifugation, followed by positive selection with magnetic anti-CD14 microbeads.
(§4) The isolated CD14^+ cells were cultivated in Minimum Essential Medium (MEM medium) supplemented with 10% fetal bovine serum (FBS), 100 ng/ml granulocyte-macrophage colony-stimulating factor (GM-CSF, Gentaur), and 50 ng/ml interleukin-4 (IL-4, R&D), and kept in an environment of 37° C. with 5% CO2/95% air.
(§5) To evaluate the effects of the present compound on dendritic cells, the CD14^+ cells were respectively treated with 10 μM of test compound (i.e., Mib-5, Mib-6, Mib-7, Mib-8, Mib-9, and Mib-10) on day 1. Then, on day 3, the cultured medium in each well was replenished by adding half the volume of the cultured medium containing the same treatment as indicated above. Then, on day 6, a cytokine cocktail containing IL-1, IL-6, and tumor necrosis factor-α (TNF-α) was added to induce maturation. On day 7, the differentiated dendritic cells were collected and subjected to further assays, including viability assay, morphology observation, and cell marker staining.
as §2
(§6) In this example, the effects of the present compounds on dendritic cells were investigated. Briefly, the dendritic cells were respectively treated with 10 μM of Mib-5, Mib-6, Mib-7, Mib-8, or Mib-10. Seven days later, the cells were harvested and subjected to analysis of morphology observation, cell viability, and/or cell marker expression.

M1 macrophages [3] = assay: Differentiation analysis, cell viability of M1 macrophages; format: cell-based, human; settings: for Cell viability of M1 macrophages: LPS-induced M1 differentiation, 6 days, control 100%
Procedure: as §1, with “analysis. The cell viability was measured by cell counting kit-8 (CCK-8, Sigma). The half maximal inhibitory concentrations (IC50) of the test compounds on macrophages or dendritic cells were calculated.” for “analysis.”

M2 macrophages [4] = assay: Cell marker expression on M2 macrophages, flow cytometry; format: cell-based, human; settings: for CD14: M2 population after treatment: Table 5; for CD80 expression on M2 macrophages: control 47.64%; for CD14 expression on M2 macrophages: control 55.66%; for CD206 expression on M2 macrophages: control 74.49%
Procedure: as §1, §2

dendritic cells [5] = assay: Morphology of dendritic cells by Liu's staining; format: cell-based, human; settings: 10 μM, seven days, FIG. 8
Procedure: as §3, §4, §5
(§7) Cells were transferred to a glass coverslide and covered with solution A (0.5 g of methylene blue and 1.7 g of Eosin yellow dissolved in 1,000 ml of ethanol). After 45 seconds, solution B (1.3 g of azure, 1.4 g of methylene blue, 23.38 g of Na2HPO4, 6.5 g of KH2PO4, dissolved in 1,000 ml of distilled water) was added in the proportion of 2 parts of B to 1 part of A. Mixed the solutions well by blowing the surface. The slide was left standing for 90 seconds and then washed off the staining solution rapidly by running water. The morphology of stained cells was then examined under microscope.
as §6

macrophages [6] = assay: Cell marker expression on macrophages (total), flow cytometry; format: cell-based, human; settings: for total expressed level of CD14: FIG. 3; for level of CD206: FIG. 5; for total level of CD80: compared with the control
Procedure: as §3, §4, §5
(§8) As to the effects of the present compound on macrophages, the CD14^+ cells were cultivated and treated as indicated above except the addition of cytokine cocktail on day 6. The macrophages were collected on day 6 and subjected to further assays, including viability assay, trypan blue exclusion test, morphology observation, cell marker staining, and phagocytotic activity analysis.
as §2

macrophages [7] = assay: Phagocytosis assay with fluorescent latex beads; format: cell-based, human; settings: M1 and/or M2 populations, FIG. 6
Procedure: as §8
The phagocytic activity of macrophages was measured by using flow cytometric analysis. The green fluorescent latex beads (carboxylate-modified beads with diameter 2 μm) were suspended in PBS solution and added into macrophage culture for 2 hours with vortexa at 37° C. The macrophages were subjected to flow cytometry for measurement of fluorescent intensity

dendritic cells [8] = assay: Trypan blue exclusion analysis of dendritic cells; format: cell-based, human; settings: 10 μM, seven days, FIG. 7
Procedure: as §3, §4, §5
(§9) The dye exclusion test is used to determine the number of viable cells present in a cell suspension. […] In this test, the cells were first treated with a test compound (i.e., Mib-5, 6, 7, 8, 9 or 10) for a certain period of time (e.g., 72 hours), then the cells were harvested and re-suspended in suitable buffer solution. The cell suspension was then mixed with trypan blue dye and then visually examined to determine whether cells had taken up or excluded the dye. A viable cell will have a clear cytoplasm, whereas a nonviable cell will have a blue cytoplasm. The concentration required to reduce viability by 50% (IC50) after 72 hours was extrapolated from the dose-response curves by different concentrations of the test compound using a second-order polynomial regression model and analyzing with SigmaPlot Software (Systat Software Inc., San Jose, Calif.).
as §6

macrophages [9] = assay: Morphology of macrophages (photographs, Liu's staining); format: cell-based, human; settings: for morphology of cells by Liu's staining compared with control cells: FIG. 1 panel C
Procedure: as §3, §4, §5, §8, §7

macrophages [10] = assay: Trypan blue exclusion test on macrophages; format: cell-based; settings: trypan blue analysis, FIG. 2
Procedure: as §3, §4, §5, §8, §9

M2 macrophages [11] = assay: Differentiation analysis, cell viability of M2 macrophages; format: cell-based, human; settings: for Cell viability of M2 macrophages: IL-4-induced M2 differentiation, 6 days, control 100%; for change in M2 population of macrophages compared with control: Table 4
Procedure: as §1, with “analysis. The cell viability was measured by cell counting kit-8 (CCK-8, Sigma). The half maximal inhibitory concentrations (IC50) of the test compounds on macrophages or dendritic cells were calculated.” for “analysis.”

Work on `CSCC[C@H](NC(=O)c1ccc(NC(=O)[C@@H](N)CS)cc1)C(=O)O` [FTase Inhibitor II, reference compound] yielded an IC50 (rat PFTase) of 0.13 ± 0.03 µM.

In the case of `COC1=CC(=O)[C@@]2(c3cc(=O)c4c(O)cc(OC)cc4o3)[C@H](C[C@]3(C)[C@@H](C(=O)O)CC=C4[C@H]3CCCC4(C)C)C(C)=CC[C@H]2C1=O` [Mib-6], the “CD14: M1 population after treatment” value (M1 macrophages [1]) is reported as “remained relatively unchanged”, the “CD80: change in M1 population” value (M1 macrophages [1]) is reported as “reduction” and the “CD206: change in M1” value (M1 macrophages [1]) is reported as “significant decrease”. For the same compound, the “CD206 expression on M1 macrophages” value (M1 macrophages [1]) was 4.52%, the “CD80 expression on M1 macrophages” value (M1 macrophages [1]) was 6.59% and the “CD14 expression on M1 macrophages” value (M1 macrophages [1]) was 86.43%. For the same compound, the “expression of CD1a, differentiation marker of dendritic cells” value (dendritic cells [2]) was “inhibited”, the “expression of CD83, maturation marker of dendritic cells” value (dendritic cells [2]) was “inhibited” and the “Cell viability of M1 macrophages” value (M1 macrophages [3]) was 57.2%. The “change in M1 population of macrophages compared with control” value (M1 macrophages [3]; Table 4) was “significant reduction”, the “CD14: M2 population after treatment” value (M2 macrophages [4]) was “significant decrease” and the “CD206: change in M2” value (M2 macrophages [4]; Table 7) was “increase”. The “CD80 expression on M2 macrophages” value (M2 macrophages [4]) was 41.4%, the “CD14 expression on M2 macrophages” value (M2 macrophages [4]) was 91.25% and the “CD206 expression on M2 macrophages” value (M2 macrophages [4]) was 77.78%. The “dendritic cell morphology compared with control group” value (dendritic cells [5]) was “cell death reflected in morphology changes, and less dendritic process”, the “total expressed level of CD14” value (macrophages [6]) was “not affected” and the “level of CD206” value (macrophages [6]) was “increase”. The “total level of CD80” value (macrophages [6]) was “significantly reduced”, the IC50 (rat PFTase) was < 10 µM and 4.97 µM and the “phagocytic activity compared with control” value (macrophages [7]) was “not”. The “levels of viable dendritic cells” value (dendritic cells [8]) was “reduced”, the “morphology and adhesion of treated macrophages” value (macrophages [9]; 10 μM, FIG. 1 panel B) was “became rounded up, and were less adhesive” and the “morphology of cells by Liu's staining compared with control cells” value (macrophages [9]) was “not significantly affected”. For the same compound, the “cell viability / cytotoxicity toward macrophages” value (macrophages [10]) was “slight toxicity; also recorded: no significant cytotoxicity”, the “Cell viability of M2 macrophages” value (M2 macrophages [11]) was 90.6% and the “change in M2 population of macrophages compared with control” value (M2 macrophages [11]) was “slight decrease”.

For `COC1=CC(=O)[C@@]2(c3cc(=O)c4c(O)cc(O)cc4o3)[C@H](CC=C(C)[C@@H]2C[C@]2(C)[C@@H](C(=O)O)CC=C3[C@H]2CCCC3(C)C)C1=O` [Mib-8], the “CD14: M1 population after treatment” value (M1 macrophages [1]) was “remained relatively unchanged”, the “CD80: change in M1 population” value (M1 macrophages [1]) was “reduction” and the “CD206: change in M1” value (M1 macrophages [1]) was “significant decrease”. The “CD206 expression on M1 macrophages” value (M1 macrophages [1]) was 11.98%, the “CD80 expression on M1 macrophages” value (M1 macrophages [1]) was 60.16% and the “CD14 expression on M1 macrophages” value (M1 macrophages [1]) was 99.73%. The “expression of CD1a, differentiation marker of dendritic cells” value (dendritic cells [2]) was “not”, the “expression of CD83, maturation marker of dendritic cells” value (dendritic cells [2]) was “not affected” and the “Cell viability of M1 macrophages” value (M1 macrophages [3]) was 79.4%. For the same compound, the “reduction in the M1 population” value (M1 macrophages [3]; compared with control, Table 4) was “about 20%”, the “CD14: M2 population after treatment” value (M2 macrophages [4]) was “significant decrease” and the “CD80: change in M2 population” value (M2 macrophages [4]; Table 6) was “increase”. For the same compound, the “CD80 expression on M2 macrophages” value (M2 macrophages [4]) was 56.66%, the “CD14 expression on M2 macrophages” value (M2 macrophages [4]) was 62.34% and the “CD206 expression on M2 macrophages” value (M2 macrophages [4]) was 51.05%. For the same compound, the “dendritic cell morphology compared with control group” value (dendritic cells [5]) was “did not cause any significant changes”, the “increase of total level of CD80 as compared with the control” value (macrophages [6]) was “about 2 folds” and the “total expressed level of CD14” value (macrophages [6]) was “not affected”. The “level of CD206” value (macrophages [6]) was “increase”, the “total level of CD80” value (macrophages [6]) was “increased” and the IC50 (rat PFTase) was < 10 µM and 5.05 µM. The “phagocytic activity compared with control” value (macrophages [7]) was “reduced”, the “levels of viable dendritic cells” value (dendritic cells [8]) was “remained relatively unchanged” and the “cells exhibiting adhesive morphology” value (macrophages [9]; 10 μM, FIG. 1 panel A) was “about 20%”. The “morphology of cells by Liu's staining compared with control cells” value (macrophages [9]) was “not significantly affected”, the “cell viability / cytotoxicity toward macrophages” value (macrophages [10]) was “did not adversely affect cell viability; also recorded: no significant cytotoxicity” and the “Cell viability of M2 macrophages” value (M2 macrophages [11]) was 100%. For the same compound, the “change in M2 population of macrophages compared with control” value (M2 macrophages [11]) was “no effect”.

With `COC1=CC(=O)[C@@]2(c3cc(=O)c4ccc(O)cc4o3)[C@H](C[C@]3(C)[C@@H](C(=O)O)CC=C4[C@H]3CCCC4(C)C)C(C)=CC[C@H]2C1=O` [Mib-9] the IC50 (rat PFTase) was ~47 µM and 47 µM.
